Assay results reported in patent US20250144067A1, “PERSONALIZED STARVATION THERAPY FOR CANCER” (Faeth Therapeutics, Inc., priority 2021, published 2025).

Assays:
[1] = system: NCI-H292 lung cancer cells; assay: FDA drug screening, complete media vs cholesterol-free media without statin (TABLE 1); assay type: cell-based, human
[2] = system: NCI-H292 lung cancer cells; assay: FDA drug screening, complete media vs cholesterol-free media with simvastatin (TABLE 2); assay type: cell-based, human; details: for Cholesterol-free media + simvastatin (0.04 μM) / Complete Media: NCI-H292 cells
[3] = Complete minus Cholesterol-free, […]
[4] = NCI-H292 cells, cholesterol-free media without statin, FDA drug library screen
[5] = NCI-H292 cells, complete media, FDA drug library screen
[6] = FDA library drug in cholesterol-free media with simvastatin 0.04 μM
[7] = FDA library drug in complete media
[8] = complete media vs cholesterol-free media + simvastatin (0.04 μM), […]
[9] = NCI-H292 cells, cholesterol-free media without statin
[10] = cholesterol-free media with simvastatin 0.04 μM, FDA drug library screen (TABLE 2)
[11] = complete media, FDA drug library screen (TABLE 2)
[12] = complete media minus cholesterol-free media + simvastatin (0.04 μM), >0 enhanced anti-cancer activity, about 0 neutral, <0 antagonist
[13] = complete vs cholesterol-free media, >0 enhanced anti-cancer activity, about 0 neutral, <0 antagonist
[14] = FDA drug library screen, cholesterol-free media with simvastatin 0.04 μM
[15] = FDA drug library screen, complete media
[16] = complete media vs cholesterol-free media + simvastatin (0.04 μM), >0 enhanced anti-cancer activity, about 0 neutral, <0 antagonist
[17] = Complete minus Cholesterol-free, >0 enhanced anti-cancer activity, about 0 neutral, <0 antagonist
[18] = complete media minus cholesterol-free media + simvastatin, >0 enhanced anti-cancer activity, about 0 neutral, <0 antagonist
[19] = drug in cholesterol-free media with simvastatin 0.04 μM
[20] = complete media minus cholesterol-free media + simvastatin (0.04 μM), […]

Structure (SMILES): CC[N+](C)(CC)CCOC(=O)C(O)(c1ccccc1)c1ccccc1 [Methylbenactyzium Bromide]
- Difference [1, 3]: 0.02
- Cholesterol-free [1, 4]: 0.9201
- Complete [1, 5]: 0.945
- Cholesterol-free media + simvastatin (0.04 μM) [2, 6]: 1.651
- Complete Media [2, 7]: 1.081
- Difference [2, 8]: −0.57

Structure (SMILES): CC(C)(C)CC(=O)OCC(=O)[C@@]1(O)CC[C@H]2[C@@H]3CCC4=CC(=O)C=C[C@]4(C)[C@H]3[C@@H](O)C[C@@]21C [Prednisolone Tebutate]
- Cholesterol-free [1, 9]: 1.01
- Complete ([1]; NCI-H292 cells, complete media): 0.6634
- Difference ([1]; complete vs cholesterol-free media, greater than 0 enhanced anti-cancer activity, about 0 neutral, below 0 antagonists): −0.35
- Cholesterol-free media + simvastatin (0.04 μM) [2, 10]: 0.7311
- Complete Media [2, 11]: 0.7398
- Difference [2, 12]: 0.01

Structure (SMILES): Oc1c(I)cc(Cl)c2cccnc12 [Clioquinol]
- Cholesterol-free [1, 4]: 0.6089
- Difference [1, 13]: 0.57
- Cholesterol-free media + simvastatin (0.04 μM) [2, 14]: 1.168
- Complete Media [2, 15]: 1.009
- Difference [2, 16]: −0.16

Structure (SMILES): COc1cc(C=O)ccc1O [Vanillin]
- Cholesterol-free [1, 4]: 0.7241
- Complete [1, 5]: 0.863
- Difference [1, 13]: 0.14
- Cholesterol-free media + simvastatin (0.04 μM) [2, 10]: 1.042
- Complete Media [2, 11]: 1.057
- Difference [2, 12]: 0.02

Structure (SMILES): O=C(/C=C/c1cccc(S(=O)(=O)Nc2ccccc2)c1)NO [Belinostat]
- Cholesterol-free [1, 4]: 0.07179
- Complete [1, 5]: 0.1605
- Difference [1, 13]: 0.09
- Cholesterol-free media + simvastatin (0.04 μM) [2, 14]: 0.2409
- Complete Media [2, 15]: 0.1471
- Difference [2, 16]: −0.09

Structure (SMILES): CC(=O)OCC(=O)[C@@]12OC(C)(C)O[C@@H]1C[C@H]1[C@@H]3C[C@H](F)C4=CC(=O)C=C[C@]4(C)[C@@]3(F)[C@@H](O)C[C@@]12C [Fluocinonide]
- Difference [1, 17]: −0.04
- Cholesterol-free [1, 4]: 0.5848
- Complete [1, 5]: 0.544
- Cholesterol-free media + simvastatin (0.04 μM) [2, 14]: 0.6998
- Complete Media [2, 15]: 0.898
- Difference [2, 18]: 0.20

Structure (SMILES): [NH2][Pt]1([NH2])[O]CC(=O)[O]1 [Nedaplatin]
- Difference [1, 3]: −0.25
- Cholesterol-free [1, 9]: 1.253
- Complete ([1]; NCI-H292 cells, complete media): 1.005
- Cholesterol-free media + simvastatin (0.04 μM) [2, 19]: 1.191
- Complete Media ([2]; drug in complete media): 0.986
- Difference [2, 8]: −0.20

Structure (SMILES): NCCCC[C@H](N)C(=O)O [L-Lysine]
- Difference [1, 3]: −0.24
- Cholesterol-free [1, 9]: 1.096
- Complete ([1]; NCI-H292 cells, complete media): 0.8592
- Cholesterol-free media + simvastatin (0.04 μM) [2, 6]: 1.021
- Complete Media [2, 7]: 0.7295
- Difference [2, 8]: −0.29

Structure (SMILES): CC(=O)C1CCC2C3CC=C4CC(OS(=O)(=O)O)CCC4(C)C3CCC12C (centres unmarked) [Pregnenolone monosulfate]
- Difference [1, 3]: −0.11
- Cholesterol-free ([1]; NCI-H292 cells, FDA drug library screen, cholesterol-free media without statin): 1.032
- Complete ([1]; NCI-H292 cells, FDA drug library screen, complete media): 0.9202
- Cholesterol-free media + simvastatin (0.04 μM) [2, 10]: 1.305
- Complete Media [2, 11]: 1.254
- Difference [2, 20]: −0.05

Structure (SMILES): Nc1ncnc2c1ncn2CCOCP(=O)(O)O [Adefovir]
- Cholesterol-free [1, 4]: 0.8102
- Complete [1, 5]: 1.199
- Difference ([1]; complete vs cholesterol-free media, […]): 0.39
- Cholesterol-free media + simvastatin (0.04 μM) [2, 10]: 0.9937
- Complete Media [2, 11]: 0.9462
- Difference [2, 20]: −0.05

Structure (SMILES): CCOc1nc2cccc(C(=O)O)c2n1Cc1ccc(-c2ccccc2-c2nnn[nH]2)cc1 [Candesartan]
- Difference [1, 17]: 0.02
- Cholesterol-free [1, 4]: 0.9494
- Complete [1, 5]: 0.9741
- Cholesterol-free media + simvastatin (0.04 μM) [2, 19]: 1.101
- Complete Media ([2]; drug in complete media): 0.8684
- Difference [2, 16]: −0.23

Structure (SMILES): N[C@@H](Cc1cc(I)c(Oc2cc(I)c(O)c(I)c2)c(I)c1)C(=O)O.[Na] [L-Thyroxine (sodium)]
- Difference [1, 17]: −0.07
- Cholesterol-free [1, 4]: 1.137
- Complete [1, 5]: 1.071
- Cholesterol-free media + simvastatin (0.04 μM) ([2]; cholesterol-free media with simvastatin 0.04 μM, cell growth value in FDA drug screen): 0.8676
- Complete Media ([2]; complete media, cell growth value in FDA drug screen): 0.8889
- Difference [2, 18]: 0.02

Structure (SMILES): Cc1cc(C)nc(NS(=O)(=O)c2ccc(N)cc2)n1 [Sulfamethazine]
- Difference ([1]; Complete minus Cholesterol-free, greater than 0 enhanced anti-cancer activity, about 0 neutral, below 0 antagonists): −0.77
- Cholesterol-free ([1]; NCI-H292 cells in cholesterol-free media without statin): 1.661
- Complete ([1]; NCI-H292 cells in complete media): 0.8945
- Cholesterol-free media + simvastatin (0.04 μM) [2, 14]: 1.21
- Complete Media [2, 15]: 1.052
- Difference [2, 16]: −0.16

Structure (SMILES): CN1[C@@H]2CC[C@H]1C[C@@H](OC(=O)[C@H](CO)c1ccccc1)C2 [L-Hyoscyamine]
- Difference [1, 3]: −0.26
- Cholesterol-free [1, 9]: 1.23
- Complete ([1]; NCI-H292 cells, complete media): 0.9714
- Cholesterol-free media + simvastatin (0.04 μM) [2, 19]: 1.192
- Complete Media ([2]; drug in complete media): 1.027
- Difference [2, 8]: −0.16
